# According to patent US20140248347A1 (PFIZER INC., priority 2011, published 2014):
# Assay: Susceptibility of axitinib API to degradation found during drug development
# Assay type: physicochemical
# Settings: active pharmaceutical ingredient
structure (smiles),measurement,value
"CNC(=O)c1ccccc1Sc1ccc2c(/C=C/c3ccccn3)n[nH]c2c1 [axitinib, N-methyl-2-[3-((E)-2-pyridin-2-yl-vinyl)-1H-indazol-6-ylsulfanyl]-benzamide]","susceptibility to degradation, including photodegradation","highly susceptible to degradation, including photodegradation"
